# According to PubChem BioAssay AID2060905 (Molecular Pharmacology Branch, DTP, NCI, 2025):
# System: 282377-053-R-J1-PDC complex spheroid viability
# Assay: Anticancer human tumor 282377-053-R-J1-PDC patient-derived colon adenocarcinoma cell line growth inhibition [RAS]
# Conditions: for IC50: curve of first compound; for viability, T/C: stronger effect = lower value
# Outline: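 Multi-cell-type spheroids: tumor cells plus HUVEC endothelial cells and mesenchymal stem cells. RAS-pathway inhibitors were combined with targeted agents, each dosed in half-log steps down from clinical Cmax, or from 10 microM when Cmax was unknown.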
# [1] = second compound 0.0316 µM, first compound 0.00316 µM
# [2] = second compound 0.0316 µM, first compound 0.01 µM
# [3] = second compound 0.0316 µM, first compound 0.0316 µM
# [4] = second compound 0.0316 µM, first compound 0.1 µM
# [5] = second compound 0.0316 µM, first compound 0.316 µM
# [6] = second compound 0.0316 µM, first compound 1 µM
# [7] = second compound 0.1 µM, first compound 0.00316 µM
# [8] = second compound 0.1 µM, first compound 0.01 µM
# [9] = second compound 0.1 µM, first compound 0.0316 µM
# [10] = second compound 0.1 µM, first compound 0.1 µM
# [11] = second compound 0.1 µM, first compound 0.316 µM
# [12] = second compound 0.1 µM, first compound 1 µM
# [13] = second compound 0.316 µM, first compound 0.00316 µM
# [14] = second compound 0.316 µM, first compound 0.01 µM
# [15] = second compound 0.316 µM, first compound 0.0316 µM
# [16] = second compound 0.316 µM, first compound 0.1 µM
# [17] = second compound 0.316 µM, first compound 0.316 µM
# [18] = second compound 0.316 µM, first compound 1 µM
# [19] = second compound 1 µM, first compound 0.00316 µM
# [20] = second compound 1 µM, first compound 0.01 µM
# [21] = second compound 1 µM, first compound 0.0316 µM
# [22] = second compound 1 µM, first compound 0.1 µM
# [23] = second compound 1 µM, first compound 0.316 µM
# [24] = second compound 1 µM, first compound 1 µM
# [25] = second compound 0.0316 µM, first compound 0.000949 µM
# [26] = second compound 0.0316 µM, first compound 0.003 µM
# [27] = second compound 0.0316 µM, first compound 0.00949 µM
# [28] = second compound 0.0316 µM, first compound 0.03 µM
# [29] = second compound 0.0316 µM, first compound 0.0949 µM
# [30] = second compound 0.0316 µM, first compound 0.3 µM
# [31] = second compound 0.1 µM, first compound 0.000949 µM
# [32] = second compound 0.1 µM, first compound 0.003 µM
# [33] = second compound 0.1 µM, first compound 0.00949 µM
# [34] = second compound 0.1 µM, first compound 0.03 µM
# [35] = second compound 0.1 µM, first compound 0.0949 µM
# [36] = second compound 0.1 µM, first compound 0.3 µM
# [37] = second compound 0.316 µM, first compound 0.000949 µM
# [38] = second compound 0.316 µM, first compound 0.003 µM
# [39] = second compound 0.316 µM, first compound 0.00949 µM
# [40] = second compound 0.316 µM, first compound 0.03 µM
# [41] = second compound 0.316 µM, first compound 0.0949 µM
# [42] = second compound 0.316 µM, first compound 0.3 µM
# [43] = second compound 1 µM, first compound 0.000949 µM
# [44] = second compound 1 µM, first compound 0.003 µM
# [45] = second compound 1 µM, first compound 0.00949 µM
# [46] = second compound 1 µM, first compound 0.03 µM
# [47] = second compound 1 µM, first compound 0.0949 µM
# [48] = second compound 1 µM, first compound 0.3 µM
# [49] = second compound 3.16 µM, first compound 0.000949 µM
# [50] = second compound 3.16 µM, first compound 0.003 µM
# [51] = second compound 3.16 µM, first compound 0.00949 µM
# [52] = second compound 3.16 µM, first compound 0.03 µM
# [53] = second compound 3.16 µM, first compound 0.0949 µM
# [54] = second compound 3.16 µM, first compound 0.3 µM
# [55] = second compound 10 µM, first compound 0.000949 µM
# [56] = second compound 10 µM, first compound 0.003 µM
# [57] = second compound 10 µM, first compound 0.00949 µM
# [58] = second compound 10 µM, first compound 0.03 µM
# [59] = second compound 10 µM, first compound 0.0949 µM
# [60] = second compound 10 µM, first compound 0.3 µM
# 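Also: spheroids exposed to agents for seven days before readout.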
# 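For viability, T/C in this document: luminescence viability as percent of DMSO vehicle control wells.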
structure (smiles),measurement,setting,value
C=CC(=O)N1CCN(c2nc(OCC3CCCN3C)nc3c(F)c(-c4nc(N)cc(C)c4C(F)(F)F)c(Cl)cc23)C(C)C1 (stereo not drawn) + C#Cc1c(F)ccc2cc(O)cc(-c3ncc4c(N5CC6CCC(C5)N6)nc(OCC56CCCN5CC(F)C6)nc4c3F)c12,IC50,second compound 0.0316 µM,> 1000 nM
same,IC50,second compound 0.1 µM,> 1000 nM
same,IC50,second compound 0.316 µM,> 1000 nM
same,IC50,second compound 1 µM,> 1000 nM
same,IC50,second compound 3.16 µM,> 1000 nM
same,IC50,second compound 10 µM,> 1000 nM
same,"viability, T/C",[1],111%
same,"viability, T/C",[2],128%
same,"viability, T/C",[3],132%
same,"viability, T/C",[4],108%
same,"viability, T/C",[5],107%
same,"viability, T/C",[6],123%
same,"viability, T/C",[7],98.7%
same,"viability, T/C",[8],96.9%
same,"viability, T/C",[9],97.2%
same,"viability, T/C",[10],96.4%
same,"viability, T/C",[11],91.6%
same,"viability, T/C",[12],84.4%
same,"viability, T/C",[13],106%
same,"viability, T/C",[14],105%
same,"viability, T/C",[15],91%
same,"viability, T/C",[16],99.5%
same,"viability, T/C",[17],96.7%
same,"viability, T/C",[18],104%
same,"viability, T/C",[19],99.6%
same,"viability, T/C",[20],90.9%
same,"viability, T/C",[21],92.8%
same,"viability, T/C",[22],90.6%
same,"viability, T/C",[23],118%
same,"viability, T/C",[24],97.5%
same,"viability, T/C","second compound 3.16 µM, first compound 0.00316 µM",91.1%
same,"viability, T/C","second compound 3.16 µM, first compound 0.01 µM",109%
same,"viability, T/C","second compound 3.16 µM, first compound 0.0316 µM",107%
same,"viability, T/C","second compound 3.16 µM, first compound 0.1 µM",98.6%
same,"viability, T/C","second compound 3.16 µM, first compound 0.316 µM",108%
same,"viability, T/C","second compound 3.16 µM, first compound 1 µM",123%
same,"viability, T/C","second compound 10 µM, first compound 0.00316 µM",100%
same,"viability, T/C","second compound 10 µM, first compound 0.01 µM",112%
same,"viability, T/C","second compound 10 µM, first compound 0.0316 µM",116%
same,"viability, T/C","second compound 10 µM, first compound 0.1 µM",102%
same,"viability, T/C","second compound 10 µM, first compound 0.316 µM",85.1%
same,"viability, T/C","second compound 10 µM, first compound 1 µM",107%
CC1(C)CCC(Nc2ncc(C(F)(F)F)c(-c3c[nH]c4c(P(C)(C)=O)c(C#N)ccc34)n2)CN1 (stereo not drawn) + C#Cc1c(F)ccc2cc(O)cc(-c3ncc4c(N5CC6CCC(C5)N6)nc(OCC56CCCN5CC(F)C6)nc4c3F)c12,IC50,second compound 0.0316 µM,> 300 nM
same,IC50,second compound 0.1 µM,> 300 nM
same,IC50,second compound 0.316 µM,> 300 nM
same,IC50,second compound 1 µM,> 300 nM
same,IC50,second compound 3.16 µM,> 300 nM
same,IC50,second compound 10 µM,> 300 nM
same,"viability, T/C",[25],142%
same,"viability, T/C",[26],109%
same,"viability, T/C",[27],91.4%
same,"viability, T/C",[28],69%
same,"viability, T/C",[29],71.2%
same,"viability, T/C",[30],66.8%
same,"viability, T/C",[31],103%
same,"viability, T/C",[32],132%
same,"viability, T/C",[33],87.1%
same,"viability, T/C",[34],72.6%
same,"viability, T/C",[35],71.9%
same,"viability, T/C",[36],72.5%
same,"viability, T/C",[37],118%
same,"viability, T/C",[38],92.6%
same,"viability, T/C",[39],92.3%
same,"viability, T/C",[40],67.1%
same,"viability, T/C",[41],71.9%
same,"viability, T/C",[42],57.8%
same,"viability, T/C",[43],112%
same,"viability, T/C",[44],110%
same,"viability, T/C",[45],96.9%
same,"viability, T/C",[46],80.4%
same,"viability, T/C",[47],74.9%
same,"viability, T/C",[48],67.7%
same,"viability, T/C",[49],93%
same,"viability, T/C",[50],103%
same,"viability, T/C",[51],98.8%
same,"viability, T/C",[52],75.4%
same,"viability, T/C",[53],83.6%
same,"viability, T/C",[54],72.9%
same,"viability, T/C",[55],113%
same,"viability, T/C",[56],87.3%
same,"viability, T/C",[57],98%
same,"viability, T/C",[58],88.4%
same,"viability, T/C",[59],98.6%
same,"viability, T/C",[60],76.7%
CCc1c2c(nc3ccc(O)cc13)-c1cc3c(c(=O)n1C2)COC(=O)[C@]3(O)CC + C#Cc1c(F)ccc2cc(O)cc(-c3ncc4c(N5CC6CCC(C5)N6)nc(OCC56CCCN5CC(F)C6)nc4c3F)c12,IC50,second compound 0.0316 µM,> 300 nM
same,IC50,second compound 0.1 µM,> 300 nM
same,IC50,second compound 0.316 µM,> 300 nM
same,IC50,second compound 1 µM,> 300 nM
same,IC50,second compound 3.16 µM,> 300 nM
same,IC50,second compound 10 µM,> 300 nM
same,"viability, T/C",[25],97%
same,"viability, T/C",[26],131%
same,"viability, T/C",[27],120%
same,"viability, T/C",[28],96.8%
same,"viability, T/C",[29],88.2%
same,"viability, T/C",[30],53%
same,"viability, T/C",[31],113%
same,"viability, T/C",[32],122%
same,"viability, T/C",[33],130%
same,"viability, T/C",[34],95.8%
same,"viability, T/C",[35],84.5%
same,"viability, T/C",[36],61.4%
same,"viability, T/C",[37],117%
same,"viability, T/C",[38],128%
same,"viability, T/C",[39],109%
same,"viability, T/C",[40],101%
same,"viability, T/C",[41],85.6%
same,"viability, T/C",[42],55.6%
same,"viability, T/C",[43],108%
same,"viability, T/C",[44],104%
same,"viability, T/C",[45],113%
same,"viability, T/C",[46],95.3%
same,"viability, T/C",[47],80.1%
same,"viability, T/C",[48],61%
same,"viability, T/C",[49],115%
same,"viability, T/C",[50],127%
same,"viability, T/C",[51],125%
same,"viability, T/C",[52],100%
same,"viability, T/C",[53],97.5%
same,"viability, T/C",[54],66.3%
same,"viability, T/C",[55],97.1%
same,"viability, T/C",[56],112%
same,"viability, T/C",[57],116%
same,"viability, T/C",[58],102%
same,"viability, T/C",[59],87.9%
same,"viability, T/C",[60],63.5%
C=CC(=O)Nc1cc(Nc2nccc(-c3cn(C)c4ccccc34)n2)c(OC)cc1N(C)CCN(C)C + C=CC(=O)N1CCN(c2nc(OCC3CCCN3C)nc3c(F)c(-c4nc(N)cc(C)c4C(F)(F)F)c(Cl)cc23)C(C)C1,IC50,second compound 0.00316 µM,> 1000 nM
same,IC50,second compound 0.01 µM,> 1000 nM
same,IC50,second compound 0.0316 µM,> 1000 nM
same,IC50,second compound 0.1 µM,> 1000 nM
same,IC50,second compound 0.316 µM,> 1000 nM
same,IC50,second compound 1 µM,> 1000 nM
same,"viability, T/C","second compound 0.00316 µM, first compound 0.00316 µM",126%
same,"viability, T/C","second compound 0.00316 µM, first compound 0.01 µM",113%
same,"viability, T/C","second compound 0.00316 µM, first compound 0.0316 µM",124%
same,"viability, T/C","second compound 0.00316 µM, first compound 0.1 µM",102%
same,"viability, T/C","second compound 0.00316 µM, first compound 0.316 µM",112%
same,"viability, T/C","second compound 0.00316 µM, first compound 1 µM",114%
same,"viability, T/C","second compound 0.01 µM, first compound 0.00316 µM",123%
same,"viability, T/C","second compound 0.01 µM, first compound 0.01 µM",111%
same,"viability, T/C","second compound 0.01 µM, first compound 0.0316 µM",100%
same,"viability, T/C","second compound 0.01 µM, first compound 0.1 µM",106%
same,"viability, T/C","second compound 0.01 µM, first compound 0.316 µM",109%
same,"viability, T/C","second compound 0.01 µM, first compound 1 µM",100%
same,"viability, T/C",[1],112%
same,"viability, T/C",[2],112%
same,"viability, T/C",[3],100%
same,"viability, T/C",[4],124%
same,"viability, T/C",[5],114%
same,"viability, T/C",[6],96.3%
same,"viability, T/C",[7],118%
same,"viability, T/C",[8],107%
same,"viability, T/C",[9],136%
same,"viability, T/C",[10],113%
same,"viability, T/C",[11],94.7%
same,"viability, T/C",[12],120%
same,"viability, T/C",[13],122%
same,"viability, T/C",[14],107%
same,"viability, T/C",[15],110%
same,"viability, T/C",[16],105%
same,"viability, T/C",[17],121%
same,"viability, T/C",[18],122%
same,"viability, T/C",[19],139%
same,"viability, T/C",[20],116%
same,"viability, T/C",[21],114%
same,"viability, T/C",[22],118%
same,"viability, T/C",[23],121%
same,"viability, T/C",[24],137%
